Assay results: patent publication US20020006906A1, “Novel active agent, composition containing it and use in the cosmetic, dermocosmetic, dermopharmaceutical or pharmaceutical field or on woven or nonwoven supports” (SOCIETE D'EXPLOITATION DE PRODUITS POUR LES, priority 2000, published 2002)

Legend:
superoxide anion = experiment: Anti-free-radical test: xanthine/xanthine oxidase, reduction of cytochrome C (550 nm); format: biochemical; conditions: 0.46% (as active substance); for % anti-free radical inhibition: 25° C.
Method: The determination of the anti-free-radical effect is based on the capacity which the molecule to be studied has to inhibit or reduce the rate of reduction of cytochrome C, when it is added to the reaction medium. The superoxide anion is formed by the action of xanthine oxidase on xanthine. It induces, in the absence of a molecule capable of capturing it, the reduction of cytochrome C. The appearance of reduced cytochrome C is monitored in a spectrophotometer at 550 nm, in the presence (Trial) and in the absence (Control) of anti-free-radical molecules.
The reaction is carried out in a spectrophotometer thermostated at 25° C. and provided with a sample changer. All the kinetics are determined at least three times; the mean and the standard deviation are calculated for the three values obtained. A percentage inhibition of the rate of appearance of the coloured product (corresponding to the quantity of free superoxide anion) is therefore calculated for each active agent tested. The calculation is performed relative to the rate of appearance of the coloured product in the control (without active agent). The percentage inhibition of the appearance of the coloured product by the active agent therefore corresponds to the percentage inhibition of the superoxide anion.

[1] = tested on: normal human keratinocytes; experiment: Cell division: fluorimetric DNA assay in keratinocytes under thermal stress; format: cell-based
Method: The effect of the active agents on cell division is measured by a fluorimetric assay of the content of DNA in normal human keratinocytes subjected to a high thermal stress (20 minutes at 50° C.). The quantity of DNA present in the cells determines their capacity to divide. The cells are used at 60% confluence. They are incubated for 24 hours in the presence of the active agents. Cell division is determined by assaying the quantity of DNA present per well.
Four samples A, B, C and D, of a culture normal human keratinocytes, are subjected to the following respective treatments:
Sample A: cells not treated and left at room temperature.
Sample B: cells not treated and heated at 50° C. for 20 minutes.
Sample D: cells left incubated for 24 hours with panthenol (concentration: 12.5×10^−6% by weight of active substance) and heated at 50° C. for 20 minutes.
The DNA in each of the samples is then assayed.

Row | SMILES | Anti-free radical activity (in words) (superoxide anion) | % anti-free radical inhibition (superoxide anion) [%] | Relative level of cell division (base 100: batch B) ([1]; Sample D: 12.5×10^−6% active substance, 24 hours, 50° C. for 20 minutes) | Cell division (in μg/well), DNA per well ([1]; Sample D: 24 hours with 12.5×10^−6% by weight of active substance, then 50° C. for 20 minutes (heated untreated sample B 3.7)) [μg/well] | Effect on cell division under heat (in words) ([1]; keratinocytes heated at 50° C. for 20 minutes)
1 | CC(C)(CO)C(O)C(=O)NCCCO (stereo not drawn) [Panthenol, 2,4-dihydroxy-N-(3-hydroxypropyl)-3,3-dimethylbutanamide] | nonexistent | 0 | 116.2 | 4.3 | only compensates for these effects
2 | O=C1O[C@H]([C@@H](O)CO)C(O)=C1O [Vitamin C, ascorbic acid] | – | 94 | – | – | –
